Tests used:
Cx. pipiens complex = settings: five field populations; cited from earlier work
Aedes albopictus = experiment: CDC bottle bioassay (AI residue); type: in vivo; settings: 30 min DT, Ae. albopictus; for mortality at the DT: 8 μg/mL residue
Experimental: (§1) Separate mosquitoes from the same populations used in wind tunnel experiments were also used in bottle bioassays, except for Ae. albopictus, F1, Craven County, NC that were used in wind tunnel but not bottle bioassays due to low sample size. Female mosquitoes (4-5 d old) were aspirated from colony cages, transferred to 500 mL glass Wheaton bottles (N=11-20 mosquitoes in each of three to four replicate bottles), and exposed constantly to technical grade permethrin AI residue (8 μg/mL) (Chem Service, Westchester, Pennsylvania) for a 120 min period using established CDC bottle bioassay methods and mortality was monitored/recorded at 0, 15, 30, 60, and 120 min (CDC 2013, 2019; Richards et al. 2017ab, 2019). Bottle bioassay control groups were transferred to clean bottles following the same established methods (CDC 2013, 2019; Richards et al. 2017ab, 2019). Diagnostic dose and diagnostic time (DT) were determined using susceptible populations of Ae. albopictus and Cx. quinquefasciatus (data not shown).
(§2) Female mosquitoes (4-5 d old) were aspirated from a separate colony cages, transferred to 500 mL glass Wheaton bottles, and exposed to AI residue using established CDC bottle bioassay methods and mortality was monitored/recorded at 15, 30, 60, and 120 min (FIG. 8). Bottle bioassay control groups were transferred to clean bottles following established methods (CDC 2013, 2019). At the 30 min DT for permethrin, Ae. albopictus, F48, Orleans Parish, Ae. albopictus, F0, New Hanover County, and Cx. pipiens quinquefasciatus, F219, Johannesburg were classified as susceptible (100% mortality at the DT); however, Cx. pipiens/quinquefasciatus, F1, New Hanover County (69% mortality) and Cx. pipiens/quinquefasciatus, F1, Pitt County County (57% mortality) were classified as resistant. FIG. 9 is a bar graph of the mortality of types of mosquitoes in the wind tunnel during bioassay exposure to permethrin.

[1] = test system: Culex pipiens/quinquefasciatus; experiment: CDC bottle bioassay (AI residue); type: in vivo; settings: 30 min DT; for mortality at the DT: 8 μg/mL residue
Experimental: as §1, §2

[2] = Cx. pipiens quinquefasciatus, F219, Johannesburg
[3] = Cx. pipiens/quinquefasciatus, F1, New Hanover County
[4] = Cx. pipiens/quinquefasciatus, F1, Pitt County

Row | SMILES | resistance classification (Cx. pipiens complex) | mortality at the DT (Aedes albopictus; F0, New Hanover County) [%] | mortality at the DT (Aedes albopictus; F48, Orleans Parish) [%] | resistance classification (Aedes albopictus; F0, New Hanover County) | resistance classification (Aedes albopictus; F48, Orleans Parish) | mortality at the DT [1, 2] [%] | mortality at the DT [1, 3] [%] | mortality at the DT [1, 4] [%] | resistance classification [1, 2] | resistance classification [1, 3] | resistance classification [1, 4]
1 | CC(C)=CC1C(C(=O)OCc2cccc(Oc3ccccc3)c2)C1(C)C (stereo not drawn) [Sumethrin®, d-phenothrin] | resistant |  |  |  |  |  |  |  |  |  | 
2 | CC1(C)C(C=C(Cl)Cl)C1C(=O)OCc1cccc(Oc2ccccc2)c1 (centres unmarked) [permethrin] |  | 100 | 100 | susceptible | susceptible | 100 | 69 | 57 | susceptible | resistant | resistant

Reference: patent US12590864B2, “Wind tunnel for assessment of insecticides” (EAST CAROLINA UNIVERSITY, priority 2023, dated 2026)
